Bridge positions count the residues as written; N and C are the ends. Peptide text beside a SMILES is read from it.
How the values were obtained:
[1] = biological target: T1, Complement C1s subcomponent (Homo sapiens, UniProt P09871); test: Inhibition of C1s (unknown origin) using Cbz-Gly-Arg-S-Bzl as substrate preincubated with substrate for 15 mins followed by enzyme addition and measured after 5 mins
T1 sequence (P09871 whole entry): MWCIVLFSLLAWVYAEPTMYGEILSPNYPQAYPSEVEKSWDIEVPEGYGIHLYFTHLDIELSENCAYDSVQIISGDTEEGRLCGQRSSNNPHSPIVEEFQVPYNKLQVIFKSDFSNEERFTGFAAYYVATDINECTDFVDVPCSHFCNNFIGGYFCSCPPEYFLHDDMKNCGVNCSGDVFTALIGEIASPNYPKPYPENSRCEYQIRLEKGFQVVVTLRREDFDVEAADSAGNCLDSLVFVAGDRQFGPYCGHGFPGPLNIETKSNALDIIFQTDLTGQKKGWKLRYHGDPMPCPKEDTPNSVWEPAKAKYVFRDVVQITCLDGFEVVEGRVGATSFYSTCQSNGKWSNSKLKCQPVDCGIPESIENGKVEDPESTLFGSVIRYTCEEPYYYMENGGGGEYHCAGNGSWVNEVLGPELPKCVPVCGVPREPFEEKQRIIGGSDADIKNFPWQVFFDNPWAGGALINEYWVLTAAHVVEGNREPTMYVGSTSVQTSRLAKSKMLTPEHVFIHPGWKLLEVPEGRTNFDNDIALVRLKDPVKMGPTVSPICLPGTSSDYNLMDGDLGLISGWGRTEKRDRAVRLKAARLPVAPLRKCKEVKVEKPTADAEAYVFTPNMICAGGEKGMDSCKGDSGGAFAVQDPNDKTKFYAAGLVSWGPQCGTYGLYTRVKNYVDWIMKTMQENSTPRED

[2] = biological target: T2, Mannan-binding lectin serine protease 1 (Homo sapiens, UniProt P48740); test: Inhibition of MASP-1 (unknown origin) using Z-L-LysSBzl hydrochloride as substrate preincubated for 1 hr followed by substrate addition
T2 sequence (P48740 whole entry): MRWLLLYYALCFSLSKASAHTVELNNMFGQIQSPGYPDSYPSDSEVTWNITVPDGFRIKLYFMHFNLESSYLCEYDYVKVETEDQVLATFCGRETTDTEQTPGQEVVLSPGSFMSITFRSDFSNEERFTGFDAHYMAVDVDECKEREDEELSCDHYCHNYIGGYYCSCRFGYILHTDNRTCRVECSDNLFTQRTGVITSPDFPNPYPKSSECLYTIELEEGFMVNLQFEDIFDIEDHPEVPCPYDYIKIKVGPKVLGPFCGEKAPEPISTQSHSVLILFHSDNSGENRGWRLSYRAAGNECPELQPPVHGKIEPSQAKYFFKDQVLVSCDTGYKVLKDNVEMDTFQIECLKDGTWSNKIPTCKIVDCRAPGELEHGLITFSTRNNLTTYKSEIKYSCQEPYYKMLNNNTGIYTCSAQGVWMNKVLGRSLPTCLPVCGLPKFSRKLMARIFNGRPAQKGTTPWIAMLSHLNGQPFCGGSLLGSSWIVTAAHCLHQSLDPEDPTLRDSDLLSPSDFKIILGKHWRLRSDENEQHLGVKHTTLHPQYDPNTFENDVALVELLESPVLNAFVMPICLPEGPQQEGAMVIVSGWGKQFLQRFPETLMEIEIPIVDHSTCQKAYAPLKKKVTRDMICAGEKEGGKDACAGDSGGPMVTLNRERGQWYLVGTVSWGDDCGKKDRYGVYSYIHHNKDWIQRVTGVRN

[3] = biological target: T3, Mannan-binding lectin serine protease 2 (Homo sapiens, UniProt O00187); test: Inhibition of MASP-2 (unknown origin) using Z-L-LysSBzl hydrochloride as substrate preincubated for 1 hr followed by substrate addition
T3 sequence (O00187 16-444 limits assumed): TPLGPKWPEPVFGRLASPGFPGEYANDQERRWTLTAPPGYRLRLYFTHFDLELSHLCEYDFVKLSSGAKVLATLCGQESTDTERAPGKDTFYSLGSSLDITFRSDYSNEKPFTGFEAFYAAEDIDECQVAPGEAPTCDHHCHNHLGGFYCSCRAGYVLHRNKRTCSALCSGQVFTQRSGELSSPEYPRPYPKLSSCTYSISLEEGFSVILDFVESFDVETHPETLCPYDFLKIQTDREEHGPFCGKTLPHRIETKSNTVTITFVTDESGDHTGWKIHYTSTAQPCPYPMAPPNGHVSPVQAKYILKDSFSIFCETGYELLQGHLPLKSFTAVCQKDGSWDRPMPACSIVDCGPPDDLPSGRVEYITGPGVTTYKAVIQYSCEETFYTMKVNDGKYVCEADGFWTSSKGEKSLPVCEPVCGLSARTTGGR
T3 sequence (O00187 445-686 limits assumed): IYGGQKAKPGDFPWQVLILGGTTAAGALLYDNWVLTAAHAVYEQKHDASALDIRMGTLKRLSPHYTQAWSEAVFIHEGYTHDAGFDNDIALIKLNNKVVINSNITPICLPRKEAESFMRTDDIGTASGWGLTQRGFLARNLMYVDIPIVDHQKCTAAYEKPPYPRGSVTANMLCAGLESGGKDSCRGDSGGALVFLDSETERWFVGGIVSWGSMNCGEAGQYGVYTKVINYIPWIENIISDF

[4] = biological target: T3, Mannan-binding lectin serine protease 2; test: Inhibition of MASP-2-mediated C4 deposition in human serum after 1 hr by ELISA
[5] = biological target: T2, Mannan-binding lectin serine protease 1; test: Inhibition of MASP-1-mediated C3 deposition in human serum after 30 mins by ELISA
[6] = biological target: T2, Mannan-binding lectin serine protease 1; test: Inhibition of recombinant […] fragment of MASP-1 (unknown origin)
[7] = biological target: T2, Mannan-binding lectin serine protease 1; test: Inhibition of MASP1 (unknown origin)-induced lectin pathway by ELISA
[8] = Binding affinity to C1q (unknown origin) by SPR method; set-up: species or system Homo sapiens
[9] = Inhibition of human plasma C1q-mediated rabbit RBC lysis after 60 mins
[10] = Inhibition of chimpanzee serum C1q-mediated rabbit RBC lysis after 60 mins; set-up: species or system Pan troglodytes
[11] = Inhibition of rhesus monkey serum C1q-mediated rabbit RBC lysis after 60 mins; set-up: species or system Macaca mulatta
[12] = Inhibition of rat serum C1q-mediated rabbit RBC lysis after 60 mins
[13] = Inhibition of mouse serum C1q-mediated rabbit RBC lysis after 60 mins
[14] = Inhibition of guinea pig C1q-mediated sheep RBC lysis; set-up: species or system Cavia porcellus
[15] = biological target: T4, Complement C1r subcomponent (Homo sapiens, UniProt P00736); test: Inhibition of human plasma C1r using Cbz-Gly-Arg-S-Bzl as substrate preincubated for 10 mins followed by substrate addition and measured after 30 mins by DTNB reagent-based two-beam microtiter plate photometer
T4 sequence (P00736 whole entry): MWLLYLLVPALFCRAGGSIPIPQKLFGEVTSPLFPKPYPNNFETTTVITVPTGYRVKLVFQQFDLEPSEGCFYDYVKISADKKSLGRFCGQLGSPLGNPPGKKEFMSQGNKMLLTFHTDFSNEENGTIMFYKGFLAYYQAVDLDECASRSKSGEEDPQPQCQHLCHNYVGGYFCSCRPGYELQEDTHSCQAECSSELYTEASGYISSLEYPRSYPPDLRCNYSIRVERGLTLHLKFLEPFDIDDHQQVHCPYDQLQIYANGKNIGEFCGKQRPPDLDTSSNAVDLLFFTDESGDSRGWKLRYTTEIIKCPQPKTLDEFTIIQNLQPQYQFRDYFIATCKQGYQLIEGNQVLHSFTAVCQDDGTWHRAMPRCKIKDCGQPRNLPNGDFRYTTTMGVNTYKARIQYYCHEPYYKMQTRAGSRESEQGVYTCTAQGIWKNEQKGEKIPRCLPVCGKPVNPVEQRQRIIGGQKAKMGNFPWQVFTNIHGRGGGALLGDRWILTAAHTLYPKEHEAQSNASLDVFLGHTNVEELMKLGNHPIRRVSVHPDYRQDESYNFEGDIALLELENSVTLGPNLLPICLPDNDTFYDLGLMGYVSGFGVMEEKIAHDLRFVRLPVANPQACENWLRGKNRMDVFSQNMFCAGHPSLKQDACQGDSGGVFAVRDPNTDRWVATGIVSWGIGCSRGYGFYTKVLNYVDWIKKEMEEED

[16] = biological target: T1, Complement C1s subcomponent; test: Inhibition of human plasma C1s using Cbz-Gly-Arg-S-Bzl as substrate preincubated for 10 mins followed by substrate addition and measured after 30 mins by DTNB reagent-based two-beam microtiter plate photometer
[17] = Inhibition of bovine trypsin esterolytic activity using Na-benzoyl-L-Arg-nitroanalide as substrate; set-up: species or system Bos taurus
[18] = Inhibition of rat serum alternative complement system-mediated lysis of guinea pig erythrocytes
[19] = Selectivity ratio of IC50 for rat serum alternative complement system-mediated lysis of guinea pig erythrocytes to IC50 for human serum C1s-mediated lysis of rabbit Ab-sensitized sheep erythrocytes after 60 mins
[20] = biological target: T4, Complement C1r subcomponent; test: Inhibition of human serum C1r using AAME as substrate after 30 mins
[21] = biological target: T1, Complement C1s subcomponent; test: Inhibition of human serum C1s using AGLME as substrate after 30 mins

CSc1sc(C(=N)N)cc1-c1nc(-c2cccc(NS(=O)(=O)c3ccc(F)cc3F)c2)cs1
Ki [1]: 0.03 µM

CC[C@H](C)[C@H](NC(=O)CN)C(=O)N[C@@H](CS)C(=O)N[C@@H](CO)C(=O)N[C@@H](CCCNC(=N)N)C(=O)N[C@@H](CO)C(=O)N[C@@H](CC(C)C)C(=O)N1CCC[C@H]1C(=O)N1CCC[C@H]1C(=O)N[C@H](C(=O)N[C@@H](CS)C(=O)N[C@H](C(=O)N1CCC[C@H]1C(=O)N[C@@H](CC(=O)O)C(=O)O)[C@@H](C)CC)[C@@H](C)CC (H-GICSRSLPPICIPD-OH)
Ki [2]: 0.065 µM | Ki [3]: 1.03 µM | IC50 [4]: 0.23 µM | IC50 [5]: 0.04 µM

CC(C)C[C@H](NC(=O)[C@H](CCCCN)NC(=O)[C@H](CCCNC(=N)N)NC(=O)[C@@H](NC(=O)[C@H](CS)NC(=O)[C@H](Cc1ccccc1)NC(=O)[C@H](C)NC(=O)[C@H](CO)NC(=O)[C@H](CCCCN)NC(=O)CNC(=O)[C@H](CC(=O)O)NC(=O)[C@H](CO)NC(=O)CNC(=O)[C@H](CS)NC(=O)[C@H](CCCNC(=N)N)NC(=O)[C@H](CS)NC(=O)[C@@H](NC(=O)[C@H](CC(N)=O)NC(=O)[C@H](CS)NC(=O)[C@H](CCCCN)NC(=O)[C@H](CC(=O)O)NC(=O)[C@H](CCCCN)NC(=O)[C@H](Cc1ccccc1)NC(=O)[C@@H](NC(=O)[C@@H](NC(=O)CNC(=O)[C@@H]1CCCN1C(=O)[C@H](CCC(=O)O)NC(=O)[C@H](CS)NC(=O)[C@@H](NC(=O)[C@@H](N)C(C)C)[C@@H](C)O)[C@@H](C)O)[C@@H](C)O)[C@@H](C)O)[C@@H](C)O)C(=O)N[C@@H](CS)C(=O)N[C@@H](Cc1ccc(O)cc1)C(=O)N[C@@H](CCC(N)=O)C(=O)O (H-VTCEPGTTFKDKCNTCRCGSDGKSAFCTRKLCYQ-OH)
Ki [6]: 0.007 µM | IC50 [7]: 0.042 µM

CC[C@H](C)[C@H](N)C(=O)N[C@@H](C)C(=O)N[C@@H](CC(C)C)C(=O)N[C@H](C(=O)N[C@@H](CC(C)C)C(=O)N[C@@H](CCC(=O)O)C(=O)N1CCC[C@H]1C(=O)N[C@H](C(=O)N[C@@H](CS)C(=O)N[C@@H](CS)C(=O)N[C@@H](CCC(N)=O)C(=O)N[C@@H](CCC(=O)O)C(=O)N[C@@H](CCCNC(=N)N)C(=O)N[C@@H](C)C(=O)N[C@@H](C)C(=O)O)[C@@H](C)CC)[C@@H](C)CC
Kd [8]: 0.033 µM

CC(C)C[C@@H]1NC(=O)[C@H](CC(=O)O)NC(=O)[C@H](Cc2c[nH]cn2)NC(=O)[C@H](CCCNC(=N)N)NC(=O)[C@@H]2CCCN2C(=O)CNC(=O)[C@H](Cc2ccccc2)NC(=O)[C@@H]2CCCN2C(=O)CNC(=O)[C@H](CCC(=O)O)NC(=O)[C@@H](N)CSSC[C@@H](C(=O)N[C@@H](Cc2c[nH]c3ccccc23)C(=O)O)NC(=O)[C@H](Cc2ccccc2)NC(=O)[C@H]([C@@H](C)O)NC1=O (H-CEGPFGPRHDLTFCW-OH; disulfide 1-14)
IC50 [9]: 2 µM | IC50 [10]: 2 to 6 µM | IC50 [11]: 2 to 6 µM | IC50 [12]: 2 to 6 µM | IC50 [13]: 2 to 6 µM

CC(=O)N[C@@H](C)C(=O)N[C@@H](CCC(=O)O)C(=O)N[C@@H](C)C(=O)N[C@@H](CCCCN)C(=O)N[C@@H](C)C(=O)N[C@@H](CCCCN)C(=O)N[C@@H](C)C(N)=O (Ac-AEAKAKA-NH2)
IC50 [14]: 166 µM

CC(C)[C@@H](NC(=O)Cc1c(Cl)cccc1Cl)C(=O)N1CC=CC1C(=O)NCc1ccc(C(=N)N)s1 (stereo partly specified)
IC50 [15]: 0.6 µM | IC50 [16]: 0.9 µM

N=C(N)c1cc2ccc(OC(=O)c3cccs3)cc2s1
IC50 [17]: 0.326 µM | IC50 [18]: 0.33 µM | Ratio IC50 [19]: 7

N=C(N)c1ccc2cc(OC(=O)c3ccc(N=C(N)N)cc3)ccc2c1 [NAFAMOSTAT]
IC50 [20]: 0.8 µM | IC50 [21]: 0.029 µM
